According to patent US12295936B2, “Immunomodulating urea azalides” (Zoetis Services LLC, priority 2020, dated 2025):

Tests used:
P. multocida = assay: Murine P. multocida intranasal challenge study with lung tissue RNA sequence analysis; type: in vivo, mice
Protocol: In one murine P. multocida intranasal challenge study, mice were administered tulathromycin (16 mg/kg; T02), M9 (32 mg/kg; T03), or ceftiofur (9 mg/kg; T04) by subcutaneous injection 18 hours after bacterial challenge (5×10^3 CFU/mouse) for lung tissue RNA sequence analysis. Survival at Day 7 was about 80%, 50%, and 90% for T02, T03, and T04, respectively, compared to placebo at 0%. Differential gene expression from total lung tissue RNA sequence analysis indicated at least 226 unique genes were up or down regulated (with significance) for T03. Output from ingenuity pathway analysis of these unique genes predicted major upstream regulators of the involved pathways. Data was analyzed based on the number of genes being modulated in the same direction that were associated with a given upstream regulator. An activation z-score of 2 or greater is considered significant and the direction change is indicated by +(activated) or − (inhibited). The top 5 pathways included: IL-9 signaling, glucocorticoid receptor signaling, prolactin signaling, JAK STAT signaling, and IL-17 signaling. The top 6 upstream regulators (activation z-score) included: lipopolysaccharide (−6.725), TNF (−4.669), IFNG (−5.759), IL-1β (−5.947), STAT1 (−2.787), and poly rl:rC-RNA (−5.289). Even though this study was run in the murine model, the top upstream regulators identified as being modulated by M9 include an almost ubiquitous overlap with the pathways identified in the natural disease study as being key mediators in BRD, and therefore is modulating highly relevant pathways in BRD pathobiology.

LCN2 = LCN2 (Bos taurus, UniProt A0AAA9TIZ6); assay: Surface plasmon resonance (SPR) drug/target affinity; type: binding; settings: biologically relevant pH
From the text: (§1) In order to add further clarity to binding partner identification, surface plasma resonance (SPR) technology was used. […] These targets were unique to this drug class compared to gamithromycin, a macrolide antibiotic used in the treatment of BRD. Both targets fit the paradigm that the immunological mechanism of action is linked to the pathways that are both of key importance as being dysregulated in BRD and modulated by M9. LCN2 is expressed by neutrophils upon activation of toll-like receptors (TLRs) and is a component of the innate inflammatory response. […] Very little information exists to date on SLAMF9. It is a member of a family of signal adaptor proteins that is thought to lack signal transduction capabilities.
(§2) KD is the equilibrium dissociation constant that was used to present the drug/target affinity. The identified targets associated with drug were measured by surface plasmon resonance (SPR) to define the KD.

LPO = LPO (Bos taurus, UniProt P80025); assay: as above; type: binding
From the text: as §1, §2

NLRX1 = assay: as above; type: binding
From the text: as §1, §2

SLAMF9 = SLAMF9 (Bos taurus, UniProt E1BNF9); assay: as above; type: binding; settings: biologically relevant pH
From the text: as §1, §2

TLR4 = assay: as above; type: binding
From the text: as §1, §2

in vivo = settings: Holstein, bovine, plasma, subcutaneous, 2.5 mg/kg
Protocol: The primary clinical endpoint for efficacy was treatment failure/success over a 14-day observation period. Clinically normal beef calves (150-200 kg) at moderate risk for BRD were dosed on arrival to the feedlot. Animals (N=114/group) received saline (T01), 5 mg/kg M9 (T02), 10 mg/kg M9 (T03) or Zactran (T04).

[1] = M9 32 mg/kg (T03), ingenuity pathway analysis, − = inhibited

Chain of LCN2 (A0AAA9TIZ6 entry or part of it): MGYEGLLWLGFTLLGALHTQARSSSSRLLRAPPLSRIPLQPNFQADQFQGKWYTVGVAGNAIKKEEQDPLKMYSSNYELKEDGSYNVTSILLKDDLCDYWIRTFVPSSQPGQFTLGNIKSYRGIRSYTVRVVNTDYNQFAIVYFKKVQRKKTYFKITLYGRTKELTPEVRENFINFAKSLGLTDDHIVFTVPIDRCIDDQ
Chain of SLAMF9 (E1BNF9 entry or part of it): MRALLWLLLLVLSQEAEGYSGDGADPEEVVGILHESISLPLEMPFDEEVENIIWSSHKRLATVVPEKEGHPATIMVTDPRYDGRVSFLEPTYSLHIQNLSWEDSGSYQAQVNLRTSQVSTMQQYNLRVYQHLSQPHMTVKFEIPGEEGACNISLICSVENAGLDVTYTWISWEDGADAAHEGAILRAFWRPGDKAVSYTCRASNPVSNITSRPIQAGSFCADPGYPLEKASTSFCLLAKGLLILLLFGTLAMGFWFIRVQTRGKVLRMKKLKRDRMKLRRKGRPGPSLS

Compound	unique genes up or down regulated (with significance), total lung tissue RNA sequence analysis (P. multocida; M9 32 mg/kg (T03))	activation z-score, upstream regulator IFNG (P. multocida; [1])	activation z-score, upstream regulator IL-1β (P. multocida; [1])	activation z-score, upstream regulator STAT1 (P. multocida; [1])	activation z-score, upstream regulator TNF (P. multocida; [1])	activation z-score, upstream regulator lipopolysaccharide (P. multocida; [1])	activation z-score, upstream regulator poly rl:rC-RNA (P. multocida; [1])	Survival at Day 7 (P. multocida; subcutaneous 18 hours after challenge (5×10^3 CFU/mouse): tulathromycin 16 mg/kg, M9 32 mg/kg, ceftiofur 9 mg/kg, placebo 0%) [%]	drug/target binding, LCN2 (LCN2)	Interaction type (LPO)	drug/target binding, NLRX1 (NLRX1)	drug/target binding, SLAMF9 (SLAMF9)	Interaction KD (M) (TLR4)	Cmax (in vivo) [ng/mL]
CCCNC[C@]1(O)[C@H](C)O[C@@H](O[C@H]2[C@H](C)[C@@H](O[C@@H]3O[C@H](C)C[C@H](NC)[C@H]3O)[C@](C)(O)C[C@@H](C)CN[C@H](C)[C@@H](O)[C@](C)(O)[C@@H](CC)OC(=O)[C@@H]2C)C[C@@]1(C)OC [Example M9, (2R,3S,4R,5R,8R,10R,11R,12S,13S,14R)-2-ethyl-3,4,10-trihydroxy-13-(((2R,4R,5S,6S)-5-hydroxy-4-methoxy-4,6-dimethyl-5-((propylamino)methyl)-tetrahydro-2H-pyran-2-yl)oxy)-11-(((2S,3R,4S,6R)-3-hydroxy-6-methyl-4-(methylamino)tetrahydro-2H-pyran-2-yl)oxy)-3,5,8,10,12,14-hexamethyl-1-oxa-6-azacyclopentadecan-15-one, reference compound]	at least 226	−5.759	−5.947	−2.787	−4.669	−6.725	−5.289	~50	direct binding targets	Indirect	Indirect	direct binding targets	Indirect	–
CCCNC[C@]1(O)[C@H](C)O[C@@H](O[C@H]2[C@H](C)[C@@H](O[C@@H]3O[C@H](C)C[C@H](N(C)C(=O)Nc4ccccc4)[C@H]3O)[C@](C)(O)C[C@@H](C)CN[C@H](C)[C@@H](O)[C@](C)(O)[C@@H](CC)OC(=O)[C@@H]2C)C[C@@]1(C)OC [Example H-91, 1-((2S,3R,4S,6R)-2-(((2R,3S,4R,5R,8R,10R,11R,12S,13S,14R)-2-ethyl-3,4,10-trihydroxy-13-(((2R,4R,5S,6S)-5-hydroxy-4-methoxy-4,6-dimethyl-5-((propylamino)methyl)tetrahydro-2H-pyran-2-yl)oxy)-3,5,8,10,12,14-hexamethyl-15-oxo-1-oxa-6-azacyclopentadecan-11-yl)oxy)-3-hydroxy-6-methyltetrahydro-2H-pyran-4-yl)-1-methyl-3-phenylurea]	–	–	–	–	–	–	–	–	–	–	–	–	–	152
